Molecules are shown by their SMILES.

Here are results for eight compounds from US6689806B1, “Indolinone compounds as kinase inhibitors” (Sugen, Inc., priority 1999, dated 2004).

The target in assay [1] is T1, Her2 (Homo sapiens, UniProt P04626).
T1 construct: fused on or other part: P00533 (Epidermal growth factor receptor)
Put plainly: HER-2 ELISA: EGF receptor-HER2 chimeric receptor assay in whole cells (HER2 kinase). Type of assay: cell-based. To be noted: NIH3T3 cells with EGFR/HER2 chimeric receptor, phosphotyrosine ELISA. The procedure: Assay 1: EGF Receptor-HER2 Chimeric Receptor Assay In Whole Cells.
HER2 kinase activity in whole EGFR-NIH3T3 cells was measured as described below:
1. An NIH3T3 cell line overexpressing a chimeric receptor containing the EGFR extracellular domain and intracellular HER2 kinase domain can be used for this assay.
3. Resuspend cells in seeding medium (DMEM, 0.5% bovine serum), and count the cells using trypan blue. Viability above 90% is acceptable. Seed cells in DMEM medium (0.5% bovine serum) at a density of 10,000 cells per well, 100 μL per well, in a 96 well microtiter plate. Incubate seeded cells in 5% CO2 at 37° C. for about 40 hours.
1. Check seeded cells for contamination using an inverted microscope. Dilute drug stock (10 mg/mL in DMSO) 1:10 in DMEM medium, then transfer 5 μL to a TBST well for a final drug dilution of 1:200 and a final DMSO concentration of 1%. Control wells receive DMSO alone. Incubate in 5% CO2 at 37° C. for two hours.
2. Prepare EGF ligand: dilute stock EGF in DMEM so that upon transfer of 10 μL dilute EGF (1:12 dilution), 100 nM final concentration is attained.
4. After 120 minutes incubation with drug, add prepared […] ligand to cells, 10 μL per well, to a final concentration of 100 nM. Control wells receive DMEM alone. Incubate, shaking, at room temperature, for 5 minutes.
5. Remove drug, EGF, and DMEM. Wash cells twice with PBS. Transfer HNTG* to cells, 100 μL per well. Place on ice for 5 minutes. Meanwhile, remove blocking buffer from other ELISA plate and wash with TBST as described above.
6. With a pipette tip securely fitted to a micropipettor, scrape cells from plate and homogenize cell material by repeatedly aspirating and dispensing the HNTG* lysis buffer. Transfer lysate to a coated, blocked, and washed ELISA plate. Incubate shaking at room temperature for one hour.
7. Remove lysate and wash 4 times with TBST. Transfer freshly diluted anti-Ptyr antibody to ELISA plate at 100 μL per well. Incubate shaking at room temperature for 30 minutes in the presence of the anti-Ptyr antiserum (1:3000 dilution in TBST).
8. Remove the anti-Ptyr antibody and wash 4 times with TBST. Transfer the freshly diluted TAGO anti-rabbit IgG antibody to the ELISA plate at 100 μL per well. Incubate shaking at room temperature for 30 minutes (anti-rabbit IgG antibody: 1:3000 dilution in TBST).
9. Remove TAGO detection antibody and wash 4 times with TBST. Transfer freshly prepared ABTS/H2O2 solution to ELISA plate, 100 μL per well. Incubate shaking at room temperature for 20 minutes. (ABTS/H2O2 solution: 1.0 μL 30% H2O2 in 10 mL ABTS stock).
10. Stop reaction by adding 50 μL 5N H2SO4 (optional), and determine O.D. at 410 nm.
11. The maximal phosphotyrosine signal is determined by subtracting the value of the negative controls from the positive controls. The percent inhibition of phosphotyrosine content for extract-containing wells is then calculated, after subtraction of the negative controls.

The target in assay [2] is T2, EGFR (Homo sapiens, UniProt P00533). Description: Biochemical EGFR assay (ELISA). More on the design: A431 cell lysate; endogenous in cells; host or cells: A431. On the procedure: This assay measures the in vitro kinase activity of EGFR using ELISA.
T2 sequence (P00533 25-1210): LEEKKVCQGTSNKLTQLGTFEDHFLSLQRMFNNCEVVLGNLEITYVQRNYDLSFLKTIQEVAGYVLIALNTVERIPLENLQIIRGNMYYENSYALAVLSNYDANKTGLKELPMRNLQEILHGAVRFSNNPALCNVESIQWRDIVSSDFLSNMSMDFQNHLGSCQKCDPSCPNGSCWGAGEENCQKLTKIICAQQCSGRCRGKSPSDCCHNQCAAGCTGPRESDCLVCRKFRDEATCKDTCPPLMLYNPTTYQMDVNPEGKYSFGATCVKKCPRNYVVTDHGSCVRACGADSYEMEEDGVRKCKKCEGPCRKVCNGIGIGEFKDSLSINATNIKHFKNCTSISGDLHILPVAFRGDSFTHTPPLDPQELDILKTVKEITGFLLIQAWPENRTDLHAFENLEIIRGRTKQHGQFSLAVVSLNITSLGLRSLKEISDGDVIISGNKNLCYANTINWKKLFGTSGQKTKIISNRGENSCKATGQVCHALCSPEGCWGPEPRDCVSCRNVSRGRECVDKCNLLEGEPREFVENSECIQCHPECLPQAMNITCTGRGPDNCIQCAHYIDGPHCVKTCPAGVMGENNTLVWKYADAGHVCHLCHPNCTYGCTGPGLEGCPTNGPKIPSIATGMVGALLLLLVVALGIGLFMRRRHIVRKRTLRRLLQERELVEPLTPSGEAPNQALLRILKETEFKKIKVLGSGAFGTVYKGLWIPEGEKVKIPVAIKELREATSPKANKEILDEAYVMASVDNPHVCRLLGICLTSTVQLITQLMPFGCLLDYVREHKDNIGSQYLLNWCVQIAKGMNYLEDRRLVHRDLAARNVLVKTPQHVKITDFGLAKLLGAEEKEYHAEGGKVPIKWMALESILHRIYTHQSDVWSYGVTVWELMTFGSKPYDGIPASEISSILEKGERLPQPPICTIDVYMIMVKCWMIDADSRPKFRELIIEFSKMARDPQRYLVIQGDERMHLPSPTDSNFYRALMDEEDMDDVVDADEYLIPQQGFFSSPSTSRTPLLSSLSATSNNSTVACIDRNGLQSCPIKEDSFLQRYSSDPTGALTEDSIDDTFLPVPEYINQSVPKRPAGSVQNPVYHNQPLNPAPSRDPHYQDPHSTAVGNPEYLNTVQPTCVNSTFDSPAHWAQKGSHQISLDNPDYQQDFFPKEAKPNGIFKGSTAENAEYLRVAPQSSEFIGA
1. Coat Coming 96 well ELISA plates with 0.5 μg SUMOl in 100 μL PBS per well, store overnight at 4° C.
5. Dilute lysate in PBS (7 μg lysate/100 μL PBS).
(§1) 6. Add 100 μL of diluted lysate to each well. Shake at room temperature for 60 min.
8. Add 120 μL TBS to ELISA plate containing captured EGFR.
9. Dilute test compound 1:10 in TBS in 96-well polypropylene plates (ie. 10 μL compound+90 μL TBS).
10. Add 13.5 μL diluted test compound to ELISA plate.
13. After 5 minutes, stop reaction by adding 16.5 μL of 200 mM EDTA (pH 8.0) to each well, shaking continuously. After the EDTA has been added, shake for 1 mm.
(§2) 15. Add 100 μL anti-phosphotyrosine (1:3000 dilution in TBST) per well. Incubate 30-45 min. at room temperature, with shaking.
(§3) 17. Add 100 μL Biosource Goat anti-rabbit IgG peroxidase conjugate (1:2000 dilution in TBST) to each well. Incubate 30 min. at room temperature, with shaking.
(§4) 19. Add 100 μL of ABTS/H2O2 solution to each well.
22. Read assay on Dynatech MR7000 ELISA reader. Test Filter: 410 nM Reference Filter: 630 Nm.
On the technique in general: In an ELISA, binding on a coated surface is turned into a signal by an enzyme label.

Assay [3] deals with T3, PDGFR (Homo sapiens, UniProt P09619). Description: Biochemical PDGFR assay (ELISA). Also noted: expressed in transfected cells; host or cells: NIH 3T3. On the procedure:
This assay measures the in vitro kinase activity of PDGFR using ELISA.
6. PDGFR-β expressing NlH 3T3 cell lysate.
1. Coat Corning 96 well ELISA plates with 0.5 μg 28D4C10 in 100 μL PBS per well, store overnight at 4° C.
5. Dilute lysate in HNTG (10 μg lysate/100 μL HNTG)
as §1
8. Add 80 μL working kinase buffer mix to ELISA plate containing captured PDGFR.
9. Dilute test compound 1:10 in TBS in 96-well polypropylene plates (i.e., 10 μL compound+90 μL TBS).
10. Add 10 μL diluted test compound to ELISA plate.
11. Incubate for 30 minutes while shaking at room temperature.
12. Add 10 μL ATP directly to all wells except negative control well (final well volume should be approximately 100 μL with 20 μM ATP in each well.) Incubate 30 minutes while shaking.
13. After 30 minutes, stop reaction by adding 10 μL of 200 mM EDTA (pH 8.0) to each well.
as §2, §3, §4
22. Read assay on Dynatech MR7000 ELISA reader: test filter: 410 nM, reference filter: 630 nM.

Assay [4] addresses T3, PDGFR. Description: PDGF-induced BrdU incorporation assay. The assay is classed as cell-based. Also noted: expressed in transfected cells; host or cells: 3T3. To be noted: Table 6; 3T3 cells expressing human PDGF-R, PDGF 3.8 nM; read-out: PDGF-Driven BrdU Incorp. IC50. The procedure: (§5) The cellular/biologic assays described herein measure the amount of DNA made in response to activation of a test kinase, which is a general measure of a proliferative response. The general procedure for this assay is as follows: a compound is introduced to cells expressing the test kinase, either naturally or recombinantly, for some period of time after which, if the test kinase is a receptor, a ligand known to activate the receptor is added. After incubation at least overnight, a DNA labeling reagent such as Bromodeoxy-uridine (BrdU) or 3H-thymidine is added. The amount of labeled DNA is detected with either an anti-BrdU antibody or by measuring radioactivity and is compared to control cells not contacted with a test compound.
PDGF-Induced BrdU Incorporation Assay
(8) 3T3 cell line genetically engineered to express human PDGF-R.
(1) Cells are seeded at 8000 cells/well in DMEM, 10% CS, 2 mM Gln in a 96 well plate. Cells are incubated overnight at 37° C. in 5% CO2.
(§6) (2) After 24 hours, the cells are washed with PBS, and then are serum starved in serum free medium (0% CS DMEM with 0.1% BSA) for 24 hours.
(3) On day 3, ligand (PDGF, 3.8 nM, prepared in DMEM with 0.1% BSA) and test compounds are added to the cells simultaneously. The negative control wells receive serum free DMEM with 0.1% BSA only; the positive control cells receive the ligand (PDGF) but no test compound. Test compounds are prepared in serum free DMEM with ligand in a 96 well plate, and serially diluted for 7 test concentrations.
(§7) (4) After 20 hours of ligand activation, diluted BrdU labeling reagent (1: 100 in DMEM, 0.1% BSA) is added and the cells are incubated with BrdU (final concentration=10 μM) for 1.5 hours.
(§8) (10) The absorbance of the samples are measured at 410 nm (in “dual wavelength” mode with a filter reading at 490 nm, as a reference wavelength) on a Dynatech ELISA plate reader.

Assay [5] concerns the target T1, Her2. Description: EGF-induced Her2-driven BrdU incorporation. Type of assay: cell-based. To be noted: Table 6; 3T3 cells with EGF-R/Her2 chimeric receptor, EGF 2 nM; read-out: Her2-Driven BrdU Incorp. IC50. The procedure:
as §5
EGF-Induced Her2-Driven BrdU Incorporation
(8) 3T3 cell line engineered to express a chimeric receptor having the extra-cellular domain of EGF-R and the intra-cellular domain of Her2.
(1) Cells are seeded at 8000 cells/well in DMEM, 10% CS, 2 mM Gln in a 96-well plate. Cells are incubated overnight at 37° C. in 5% CO2.
as §6
(3) On day 3, ligand (EGF=2 nM, prepared in DMEM with 0.1% BSA) and test compounds are added to the cells simultaneously. The negative control wells receive serum free DMEM with 0.1% BSA only; the positive control cells receive the ligand (EGF) but no test compound. Test compounds are prepared in serum free DMEM with ligand in a 96 well plate, and serially diluted for 7 test concentrations.
(4) After 20 hours of ligand activation, diluted BrdU labeling reagent (1:100 in DMEM, 0.1% BSA) is added and the cells are incubated with BrdU (final concentration=[…]) for 1.5 hours.
as §8
On the technique in general: Dividing cells build labelled thymidine or BrdU into new DNA.

In assay [6] the target is T2, EGFR. Put plainly: EGF-induced BrdU incorporation assay. Also noted: expressed in transfected cells; host or cells: 3T3. Conditions: Table 6; 3T3 cells expressing human EGF-R, EGF 2 nM; read-out: EGF-Driven BrdU Incorp. IC50. The assay is classed as cell-based. The procedure:
as §5
EGF-Induced BrdU Incorporation Assay
(8) 3T3 cell line genetically engineered to express human EGF-R.
(1) Cells are seeded at 8000 cells/well in 10% CS, 2 mM Gin in DMEM, in a 96 well plate. Cells are incubated overnight at 37° C. in 5% CO2.
as §6
(3) On day 3, ligand (EGF, 2 nM, prepared in DMEM with 0.1%/BSA) and test compounds are added to the cells simultaneously. The negative control wells receive serum free DMEM with 0.1% BSA only; the positive control cells receive the ligand (EGF) but no test compound. Test compounds are prepared in serum free DMEM with ligand in a 96 well plate, and serially diluted for 7 test concentrations.
as §7, §8

A further assay deals with A431. Put plainly: A431 growth. Type of assay: cell-based. Conditions: Homo sapiens, A-431; Table 7; A431 cells.
For another assay, the system named is SKOV3. Put plainly: SKOV3 growth. The assay is classed as cell-based. Conditions: Homo sapiens, SK-OV-3; Table 7; SKOV3 cells.
The mark [7] stands for this setting: Table 7, in vitro kinase activity, read-out: EGFr biochem IC50.

T3 sequence (P09619 33-1106): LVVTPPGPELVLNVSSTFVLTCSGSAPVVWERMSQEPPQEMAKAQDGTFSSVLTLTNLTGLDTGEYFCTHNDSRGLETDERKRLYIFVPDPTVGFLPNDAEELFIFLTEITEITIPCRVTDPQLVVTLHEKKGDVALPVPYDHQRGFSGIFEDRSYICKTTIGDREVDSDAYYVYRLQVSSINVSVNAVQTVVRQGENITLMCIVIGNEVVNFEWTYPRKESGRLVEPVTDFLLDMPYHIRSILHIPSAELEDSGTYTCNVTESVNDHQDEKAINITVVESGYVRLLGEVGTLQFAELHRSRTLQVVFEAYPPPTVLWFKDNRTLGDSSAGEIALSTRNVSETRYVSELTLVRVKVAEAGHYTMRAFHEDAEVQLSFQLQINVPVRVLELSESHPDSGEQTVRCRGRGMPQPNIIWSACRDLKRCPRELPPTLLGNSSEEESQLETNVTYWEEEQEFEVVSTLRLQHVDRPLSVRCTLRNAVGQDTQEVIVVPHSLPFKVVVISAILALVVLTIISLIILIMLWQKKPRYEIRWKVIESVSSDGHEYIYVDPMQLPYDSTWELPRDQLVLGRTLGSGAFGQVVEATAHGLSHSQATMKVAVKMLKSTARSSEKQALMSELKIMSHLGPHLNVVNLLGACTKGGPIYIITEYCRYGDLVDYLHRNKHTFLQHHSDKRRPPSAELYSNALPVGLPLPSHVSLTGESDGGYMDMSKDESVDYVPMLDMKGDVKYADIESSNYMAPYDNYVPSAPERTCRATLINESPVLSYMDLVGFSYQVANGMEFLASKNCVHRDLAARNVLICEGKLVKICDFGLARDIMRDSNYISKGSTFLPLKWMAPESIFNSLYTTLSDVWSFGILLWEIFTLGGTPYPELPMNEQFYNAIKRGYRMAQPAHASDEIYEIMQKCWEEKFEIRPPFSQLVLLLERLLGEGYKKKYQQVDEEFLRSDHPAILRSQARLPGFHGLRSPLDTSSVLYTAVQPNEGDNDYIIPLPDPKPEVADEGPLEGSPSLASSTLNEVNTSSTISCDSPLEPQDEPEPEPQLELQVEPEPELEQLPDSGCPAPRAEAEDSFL
T1 sequence (P04626 676-1255 limits assumed): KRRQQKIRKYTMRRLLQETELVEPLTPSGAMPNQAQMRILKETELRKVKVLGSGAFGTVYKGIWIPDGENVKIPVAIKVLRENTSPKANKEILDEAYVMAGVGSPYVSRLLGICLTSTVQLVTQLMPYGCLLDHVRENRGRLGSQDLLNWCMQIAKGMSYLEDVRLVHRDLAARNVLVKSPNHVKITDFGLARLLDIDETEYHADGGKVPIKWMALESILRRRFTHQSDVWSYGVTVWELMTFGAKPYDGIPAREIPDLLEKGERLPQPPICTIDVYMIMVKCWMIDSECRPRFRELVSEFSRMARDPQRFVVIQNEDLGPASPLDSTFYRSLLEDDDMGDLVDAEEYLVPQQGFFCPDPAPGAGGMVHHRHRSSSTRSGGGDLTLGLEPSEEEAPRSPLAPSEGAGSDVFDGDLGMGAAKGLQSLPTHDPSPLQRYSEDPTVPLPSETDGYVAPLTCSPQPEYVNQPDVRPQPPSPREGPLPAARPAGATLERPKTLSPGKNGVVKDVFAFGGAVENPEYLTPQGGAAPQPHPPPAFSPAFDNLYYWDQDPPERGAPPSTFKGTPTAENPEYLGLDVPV

The IC50 is the concentration at which inhibition is half-maximal. Consider `Cc1[nH]c(C=C2C(=O)Nc3cc(-c4cccs4)ccc32)c(C)c1CCCN(C)C` [AHI-8, 3-[4-(3-Dimethylaminopropyl)-3,5-dimethyl-1H-pyrrol-2-ylmethylene]-6-thiophen-2-yl-1,3-dihydroindol-2-one], for which the IC50 at Her2 [1] (Table 4) was 71 µM; at EGFR [2] (Table 4, in vitro kinase activity, read-out: bio EGFr IC50), > 100 µM; at PDGFR [3] (Table 4, in vitro kinase activity, read-out: bio PDGFr IC50) it was 0.52 µM.

As to `COc1ccc(/C(=C2/C(=O)Nc3ccccc32)c2[nH]c(C)cc2C)cc1` [DAI-I, 3-[(3,5-Dimethyl-1H-pyrrol-2-yl)-(4-methoxy-phenyl)-methylene]-1,3-dihydro-indol-2-one], the IC50 at PDGFR [4] is 0.77 µM; on Her2 [5], 46.9 µM; at EGFR [6] it was > 50 µM.

Turning to `COc1ccc(/C(=C2/C(=O)Nc3ccccc32)c2[nH]c(C)cc2C)cc1OC` [DAI-II, 3-[(3,4-dimethoxy-phenyl)-(3,5-dimethyl-1H-pyrrol-2-yl)-methylene]-1,3-dihydro-indol-2-one], the IC50 is 0.26 µM at PDGFR [4], 30.2 µM on Her2 [5] and 38.3 µM at EGFR [6].

In the case of `O=C1Cc2c(CCOC(=S)Nc3ccccc3)cccc2N1` [IN-010, Phenyl-thiocarbamic acid O-[2-(2-oxo-2,3-dihydro-1H-indol-4-yl)-ethyl]ester], the IC50 in the assay on A431 was > 25 µM; in the assay with SKOV3, > 25 µM; at Her2 [1] (Table 7), > 100 µM; at EGFR [2] (setting [7]) it was > 100 µM.

With `O=C1Cc2c(CCOC(=O)Nc3ccccc3)cccc2N1` [IN-011, Phenyl-carbamic acid 2-(2-oxo-2,3-dihydro-1H-indol-4-yl)-ethyl ester], the IC50 was > 50 µM with A431, > 50 µM in the assay on SKOV3, > 100 µM against Her2 [1] (Table 7) and > 100 µM at EGFR [2] (setting [7]).

Turning to `CC(C)(C)NC(=O)OCCc1cccc2c1CC(=O)N2` [IN-012, tert-Butyl-carbamic acid 2-(2-oxo-2,3-dihydro-1H-indol-4-yl)-ethyl ester], the IC50 with A431 is > 50 µM; in the assay with SKOV3, > 50 µM; on Her2 [1] (Table 7) it was > 100 µM; on EGFR [2] (setting [7]), > 100 µM.

`COc1ccc(OCCc2cccc3c2CC(=O)N3)cc1` [IN-017, 4-[2-(4-Methoxy-phenoxy)-ethyl]-1,3-dihydro-indol-2-one]: the IC50 is > 50 µM in the assay on SKOV3, > 100 µM against Her2 [1] (Table 7) and > 100 µM at EGFR [2] (setting [7]).

Regarding `CC(C)NC(=O)OCCc1cccc2c1CC(=O)N2` [IN-025, Isopropyl-carbamic acid 2-(2-oxo-2,3-dihydro-1H-indol-4-yl)-ethyl ester], the IC50 is 3.9 µM against Her2 [1] (Table 7); > 100 µM on EGFR [2] (setting [7]); 70.8 µM at PDGFR [3] (Table 7, in vitro kinase activity, read-out: PDGFr biochem IC50).
